Laboratory results reported in patent US4145419A, “Novel imidazobenzoxazines” (Roussel Uclaf, priority 1976, dated 1979).
Like-named read-outs stand apart in the source and are kept apart here.

Test system: passive cutaneous anaphylaxis
Experiment: Passive Cutaneous Anaphylaxis (PCA) in Rats
Type: in vivo
Conditions: Rattus norvegicus, dosed immediately prior to intravenous antigen challenge, read-out: ED50 (dose of drug giving 50% inhibition)
Source text: Passive Cutaneous Anaphylaxis (PCA) in Rats
Cutaneous anaphylaxis can be induced in rats by intradermal (ID) sensitization with antiserum followed three days later by systemic challenge with antigen. Evans blue dye injected with the antigen is used as a marker to assess the severity of the local response. Anti-allergic drugs inhibit this reaction. This method has been described by OVARY (1962) "Passive Cutaneous Anaphylaxis in Allergology" Page 358-367 Ed. Brown: Pergamon Press:-male rats weighing 180-220 grams are used in groups of seven.
Preparation of Antigen for Sensitization (Alum precipitated ovalbumen)
1. Wash 120 grams of Al(OH)3 gel in 140 ml of saline (use of a macerater facilitates mixing).
2. Centrifuge at 3,000 r.p.m. for about 10 minutes.
3. Resuspend the precipitate with 300 ml of albumen egg powder (1.3 mg/ml) in saline and allow to stand for 30 minutes.
4. Centrifuge at 3,000 r.p.m. for 10 minutes.
5. Weigh the wet precipitate and to each gram weight add 1 ml of saline. Store in refrigerator (Quantity sufficient for 60 rats for a 3 day sensitization program).
Preparation of Antiserum (anti-ovalbumen)
1 ml of the alum precipitated ovalbumen was injected subcutaneously into rats weighing 180-200 grams on days 0,2,4. The rats were bled on day 14 either by cardiac puncture or via the dorsal abdominal aorta. Equal quantities of serum from each animal were pooled and thoroughly mixed and 2 ml aliquots were stored at -20° C. in plastic tubes.
The antiserum for sensitization was diluted so that an ID injection of 0.1 ml into control animals would give an average score of a single spot of between 2.0-3.5 using a 4 point scoring system.
(A) SENSITIZATION: The rats were anaesthetized with Nembutal (40-60 mg/kg i.p.) and were then sensitized by four ID injections (0.1 ml each) on their shaved backs. The animals were then left for a period of three days to develop sensitization.
(B) CHALLENGE: The sensitized rats were dosed orally or intraveneously with the drug immediately prior to intraveneous challage via the superficial penile vein with 1 ml of an antigen/Evans blue mixture (1 mg albumen egg powder in 0.5 ml saline plus 0.5 ml of 1% Evans blue). The injection were speeded up by using an automatic 1 ml self-filling glass syringe. The "challenged" rats were killed after 30 minutes, (usually pithed) and their skin on the dorsal surface was removed. The degree and area of blueing, proportional to the anaphylactic reaction was assessed on a four point scoring system.
1. Total scores for sites 1,2,3 and 4 = X
2. mean value of X for each group = X
3. x t = X for test group X c = X for control group
4. % inhibition = X c - X t/X c X 100/1
5. ed50 = dose of drug giving 50% inhibition.
ED50 values for the compounds tested in the passive cutaneous anaphylaxis screen (in rats) are as follows: […]

Structure (SMILES)	ED50 (I.V.) [mg/kg]	ED50 (po, P.O.) [mg/kg]
O=C(O)c1cn2c(n1)COc1ccccc1-2 [Example 2, 4H-imidazo-[2,1-c][1,4]-benzoxazine-2-carboxylic acid]	1.95	2.88
CC(=O)Nc1ccc2c(c1)-n1cc(C(=O)O)nc1CO2 [Example 11, 8-acetamido-4H-imidazo-[2,1-c][1,4]-benzoxazine-2-carboxylic acid]	0.073	> 10
O=C(O)c1cn2c(n1)COc1ccc([N+](=O)[O-])cc1-2 [Example 10, 8-nitro-4H-imidazo-[2,1-c][1,4]-benzoxazine-2-carboxylic acid]	2.2	–
O=C(OCCN1CCOCC1)c1cn2c(n1)COc1ccccc1-2 [Example 5, 2-morpholinoethyl 4H-imidazo-[2,1-c][1,4]-benzoxazine-2-carboxylate]	1.75	10.7
COC(=O)c1cn2c(n1)COc1ccccc1-2 [Example 1, methyl 4H-imidazo-[2,1-c][1,4]-benzoxazine-2-carboxylate]	–	10.8
O=C(O)C(=O)Nc1ccc2c(c1)-n1cc(C(=O)O)nc1CO2 [Example 12, 8-oxalamino-4H-imidazo-[2,1-c][1,4]-benzoxazine-2-carboxylic acid]	–	3.85
